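Tested at 5 concentrations; 48 h exposure; 96-well plates; endpoints linearly interpolated, else capped at highest concentration. GI50 is the concentration that inhibits growth by half. TGI marks complete inhibition of growth.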
Assays:
Experiment in all cases: NCI tumour cell line growth inhibition, 48 h; in the data active = GI50 below about 0.43 µM; inactive = the rest
[1] = tested on: 786-0 renal
[2] = tested on: A498 renal
[3] = tested on: A549 NSCLC
[4] = tested on: ACHN renal
[5] = tested on: BT-549 breast
[6] = tested on: CAKI-1 renal
[7] = tested on: CCRF-CEM leukemia
[8] = tested on: COLO 205 colon
[9] = tested on: DU-145 prostate
[10] = tested on: EKVX NSCLC
[11] = tested on: HCC-2998 colon
[12] = tested on: HCT-116 colon
[13] = tested on: HCT-15 colon
[14] = tested on: HL-60(TB) leukemia
[15] = tested on: HOP-62 NSCLC
[16] = tested on: HOP-92 NSCLC
[17] = tested on: HS 578T breast
[18] = tested on: HT29 colon
[19] = tested on: IGROV1 ovarian
[20] = tested on: K-562 leukemia
[21] = tested on: KM12 colon
[22] = tested on: LOX IMVI melanoma
[23] = tested on: M14 melanoma
[24] = tested on: MALME-3M melanoma
[25] = tested on: MCF7 breast
[26] = tested on: MDA-MB-231 breast
[27] = tested on: MDA-MB-435
[28] = tested on: MOLT-4 leukemia
[29] = tested on: NCI-H226 lung
[30] = tested on: NCI-H23 lung
[31] = tested on: NCI-H460 lung
[32] = tested on: NCI-H522 lung
[33] = tested on: NCI/ADR-RES ovarian
[34] = tested on: OVCAR-3 ovarian
[35] = tested on: OVCAR-4 ovarian
[36] = tested on: OVCAR-5 ovarian
[37] = tested on: OVCAR-8 ovarian
[38] = tested on: PC-3 prostate
[39] = tested on: RPMI-8226 leukemia
[40] = tested on: RXF 393 renal
[41] = tested on: SF-268 CNS
[42] = tested on: SF-295 CNS
[43] = tested on: SF-539 CNS
[44] = tested on: SK-MEL-2 melanoma
[45] = tested on: SK-MEL-28 melanoma
[46] = tested on: SK-MEL-5 melanoma
[47] = tested on: SK-OV-3 ovarian
[48] = tested on: SN12C renal
[49] = tested on: SNB-19 CNS
[50] = tested on: SNB-75 CNS
[51] = tested on: SR leukemia
[52] = tested on: SW-620 colon
[53] = tested on: T-47D breast
[54] = tested on: TK-10 renal
[55] = tested on: U251 CNS
[56] = tested on: UACC-257 melanoma
[57] = tested on: UACC-62 melanoma
[58] = tested on: UO-31 renal

Cc1[nH]c2ccccc2c1CCCO
> 100000 nM: TGI [2] | TGI [8] | TGI [9] | TGI [23] | TGI [27] | TGI [32] | TGI [34] | TGI [46]
> 100 µM: TGI [1] | TGI [3] | TGI [4] | TGI [5] | TGI [6] | TGI [7] | TGI [10] | TGI [11] | TGI [12] | TGI [13] | TGI [14] | TGI [15] | TGI [16] | TGI [17] | TGI [18] | TGI [19] | TGI [20] | TGI [21] | TGI [22] | TGI [24] | TGI [25] | TGI [26] | TGI [28] | TGI [29] | TGI [30] | TGI [31] | TGI [33] | TGI [35] | TGI [36] | TGI [37] | TGI [38] | TGI [39] | TGI [40] | TGI [41] | TGI [42] | TGI [43] | TGI [44] | TGI [45] | TGI [47] | TGI [48] | TGI [49] | TGI [50] | TGI [51] | TGI [52] | TGI [53] | TGI [54] | TGI [55] | TGI [56] | TGI [57] | TGI [58]
inactive: GI50 [1] > 100000 nM | GI50 [2] > 100 µM | GI50 [3] > 100000 nM | GI50 [4] > 100000 nM | GI50 [5] > 100000 nM | GI50 [6] > 100000 nM | GI50 [7] > 100 µM | GI50 [8] > 100 µM | GI50 [9] > 100000 nM | GI50 [10] > 100 µM | GI50 [11] > 100000 nM | GI50 [12] > 100 µM | GI50 [13] > 100000 nM | GI50 [14] > 100000 nM | GI50 [15] > 100000 nM | GI50 [16] > 100000 nM | GI50 [17] 54.9 µM | GI50 [18] > 100000 nM | GI50 [19] 82.9 µM | GI50 [20] > 100 µM | GI50 [21] > 100 µM | GI50 [22] > 100 µM | GI50 [23] > 100000 nM | GI50 [24] > 100 µM | GI50 [25] > 100 µM | GI50 [26] > 100000 nM | GI50 [27] > 100 µM | GI50 [28] > 100000 nM | GI50 [29] > 100 µM | GI50 [30] > 100000 nM | GI50 [31] > 100000 nM | GI50 [32] > 100 µM | GI50 [33] > 100 µM | GI50 [34] > 100 µM | GI50 [35] > 100000 nM | GI50 [36] > 100000 nM | GI50 [37] > 100 µM | GI50 [38] > 100000 nM | GI50 [39] > 100 µM | GI50 [40] > 100 µM | GI50 [41] > 100 µM | GI50 [42] > 100 µM | GI50 [43] > 100 µM | GI50 [44] > 100000 nM | GI50 [45] > 100 µM | GI50 [46] > 100000 nM | GI50 [47] > 100000 nM | GI50 [48] > 100000 nM | GI50 [49] > 100000 nM | GI50 [50] > 100000 nM | GI50 [51] > 100 µM | GI50 [52] > 100 µM | GI50 [53] > 100 µM | GI50 [54] > 100 µM | GI50 [55] > 100000 nM | GI50 [56] > 100 µM | GI50 [57] > 100 µM | GI50 [58] 75.2 µM

COc1ccc2c(c1)NC1=C(C(=O)OC1)C2c1cc(OC)c2c(c1)OCO2 (centres undefined)
25.1 nM: TGI [32]
70.8 µM: TGI [15]
30.5 nM: TGI [8]
> 87.9 µM: TGI [16]
32.2 nM: TGI [27]
66 nM: TGI [9]
active: GI50 [1] 32 nM | GI50 [2] < 0.0146 µM | GI50 [3] 22.9 nM | GI50 [4] 56.7 nM | GI50 [5] 46 nM | GI50 [6] 50.2 nM | GI50 [7] < 0.0187 µM | GI50 [8] < 0.0135 µM | GI50 [9] 21.8 nM | GI50 [11] 29.7 nM | GI50 [12] < 0.0182 µM | GI50 [13] 31.9 nM | GI50 [14] 20.9 nM | GI50 [15] 22.5 nM | GI50 [17] < 0.0189 µM | GI50 [18] 31.4 nM | GI50 [19] 0.0337 µM | GI50 [22] < 0.0189 µM | GI50 [23] 13.2 nM | GI50 [25] < 0.0158 µM | GI50 [26] 34.2 nM | GI50 [27] < 0.0123 µM | GI50 [28] 24.6 nM | GI50 [29] < 0.0153 µM | GI50 [30] 25.9 nM | GI50 [31] 27.4 nM | GI50 [33] < 0.0165 µM | GI50 [34] < 0.0149 µM | GI50 [35] 25.7 nM | GI50 [36] 81.7 nM | GI50 [37] < 0.0185 µM | GI50 [38] 28 nM | GI50 [39] < 0.0198 µM | GI50 [40] < 0.0167 µM | GI50 [41] < 0.021 µM | GI50 [42] < 0.0155 µM | GI50 [43] < 0.0178 µM | GI50 [44] 29.9 nM | GI50 [46] 21 nM | GI50 [47] 20.4 nM | GI50 [48] 28.8 nM | GI50 [49] 51.9 nM | GI50 [50] 42.6 nM | GI50 [51] < 0.0191 µM | GI50 [52] < 0.0192 µM | GI50 [55] 23.6 nM | GI50 [57] < 0.0156 µM
52.3 nM: TGI [46]
58.5 nM: TGI [23]
> 83.2 µM: TGI [43]
> 100 µM: TGI [1] | TGI [3] | TGI [4] | TGI [5] | TGI [6] | TGI [7] | TGI [10] | TGI [13] | TGI [14] | TGI [17] | TGI [18] | TGI [19] | TGI [20] | TGI [22] | TGI [24] | TGI [25] | TGI [26] | TGI [28] | TGI [30] | TGI [31] | TGI [35] | TGI [36] | TGI [37] | TGI [38] | TGI [39] | TGI [41] | TGI [42] | TGI [44] | TGI [45] | TGI [48] | TGI [49] | TGI [51] | TGI [52] | TGI [53] | TGI [54] | TGI [55] | TGI [56] | TGI [57] | TGI [58]
43.7 nM: TGI [2]
inactive: GI50 [16] 1360 nM | GI50 [24] > 100 µM | GI50 [53] > 100 µM | GI50 [54] 60.7 µM
43.3 µM: TGI [50]
> 72.4 µM: TGI [40]
24.1 nM: TGI [34]
